Measurements from ChEMBL document CHEMBL5375959 (J Med Chem, 2023).
Activity calls are given as the source filed them. No cut-off for these calls is given here.

Assays:
[1] = target: Sarcoplasmic/endoplasmic reticulum calcium ATPase 2 (Homo sapiens) (UniProt P16615); assay: Activation of SERCA2a in human HEK293T cells endoplasmic reticulum assessed as increase in […] measured for 10 mins in presence of ATP by NADH fluorescence-coupled ATPase assay; assay type: subcellular
Ryanodine receptor 2 [2] = target: T1, Ryanodine receptor 2 (Homo sapiens, UniProt Q92736); assay: Modulator activity at wild type RyR2 (unknown origin) expressed in HEK293T co-expressed with R-CEPIA1er assessed as decrease in RyR2-mediated calcium leak in presence of calcium chloride by time-lapse fluorescence analysis; assay type: cell-based
[3] = target: Sarcoplasmic/endoplasmic reticulum calcium ATPase 2 (Mus musculus, UniProt O55143); assay: (§1) Activation of SERCA2a in mouse HL-1 cells assessed as increase in caffeine-induced calcium release incubated for 2 hrs by FLIPR Calcium 6 dye based caffeine assay; assay type: cell-based
[4] = Permeability of the compound measured after 24 hrs by PAMPA; assay type: ADME; settings: read-out: permeability
[5] = target: Sarcoplasmic/endoplasmic reticulum calcium ATPase 2 (Mus musculus) (UniProt O55143); assay: Activation of SERCA2a in C57BL/6N mouse sarcoplasmic reticulum assessed as increase in […] measured for 10 mins in presence of ATP by NADH fluorescence-coupled ATPase assay; assay type: subcellular; settings: filed as activator
[6] = target: Sarcoplasmic/endoplasmic reticulum calcium ATPase 2 (Mus musculus) (UniProt O55143); assay: Activation of SERCA2a in mouse HL-1 cells assessed as increase in caffeine-induced calcium release at 0.1 to 50 uM incubated for 2 hrs by FLIPR Calcium 6 dye based caffeine assay; assay type: cell-based; settings: dose 0.1-50 µM
Ryanodine receptor 2 [7] = target: T1, Ryanodine receptor 2; assay: Modulator activity at wild type RyR2 (unknown origin) expressed in HEK293T co-expressed with R-CEPIA1er assessed as decrease in RyR2-mediated calcium leak at 1 mM in presence of calcium chloride by time-lapse fluorescence analysis; assay type: cell-based; settings: filed as modulator
[8] = target: Sarcoplasmic/endoplasmic reticulum calcium ATPase 2 (Mus musculus) (UniProt O55143); assay: as §1; assay type: cell-based
[9] = target: Sarcoplasmic/endoplasmic reticulum calcium ATPase 2 (Mus musculus) (UniProt O55143); assay: Activation of SERCA2a in mouse HL-1 cells assessed as increase in caffeine-induced calcium release at 10 uM incubated for 2 hrs by FLIPR Calcium 6 dye based caffeine assay; assay type: cell-based
Ryanodine receptor 2 [10] = target: T1, Ryanodine receptor 2; assay: Modulator activity at wild type RyR2 (unknown origin) expressed in HEK293T co-expressed with R-CEPIA1er assessed as decrease in RyR2-mediated calcium leak at 25 uM in presence of calcium chloride by time-lapse fluorescence analysis; assay type: cell-based; settings: filed as modulator
[11] = target: Sarcoplasmic/endoplasmic reticulum calcium ATPase 2 (Mus musculus) (UniProt O55143); assay: Activation of SERCA2a in mouse HL-1 cells assessed as increase in caffeine-induced calcium release at 50 uM incubated for 2 hrs by FLIPR Calcium 6 dye based caffeine assay; assay type: cell-based
[12] = target: Sarcoplasmic/endoplasmic reticulum calcium ATPase 2 (Mus musculus) (UniProt O55143); assay: Activation of SERCA2a in mouse HL-1 cells assessed as increase in caffeine-induced calcium release at 10 uM incubated for 2 hrs by FLIPR Calcium 6 dye based caffeine assay relative to control; assay type: cell-based; settings: filed as activator
[13] = target: Sarcoplasmic/endoplasmic reticulum calcium ATPase 2 (Mus musculus) (UniProt O55143); assay: Activation of SERCA2a in mouse HL-1 cells assessed as increase in caffeine-induced calcium release at 25 uM incubated for 2 hrs by FLIPR Calcium 6 dye based caffeine assay; assay type: cell-based
[14] = target: Sarcoplasmic/endoplasmic reticulum calcium ATPase 2 (Mus musculus) (UniProt O55143); assay: Activation of SERCA2a in mouse HL-1 cells assessed as increase in caffeine-induced calcium release at 3 uM incubated for 2 hrs by FLIPR Calcium 6 dye based caffeine assay relative to control; assay type: cell-based; settings: filed as activator

T1 sequence (Q92736 whole entry): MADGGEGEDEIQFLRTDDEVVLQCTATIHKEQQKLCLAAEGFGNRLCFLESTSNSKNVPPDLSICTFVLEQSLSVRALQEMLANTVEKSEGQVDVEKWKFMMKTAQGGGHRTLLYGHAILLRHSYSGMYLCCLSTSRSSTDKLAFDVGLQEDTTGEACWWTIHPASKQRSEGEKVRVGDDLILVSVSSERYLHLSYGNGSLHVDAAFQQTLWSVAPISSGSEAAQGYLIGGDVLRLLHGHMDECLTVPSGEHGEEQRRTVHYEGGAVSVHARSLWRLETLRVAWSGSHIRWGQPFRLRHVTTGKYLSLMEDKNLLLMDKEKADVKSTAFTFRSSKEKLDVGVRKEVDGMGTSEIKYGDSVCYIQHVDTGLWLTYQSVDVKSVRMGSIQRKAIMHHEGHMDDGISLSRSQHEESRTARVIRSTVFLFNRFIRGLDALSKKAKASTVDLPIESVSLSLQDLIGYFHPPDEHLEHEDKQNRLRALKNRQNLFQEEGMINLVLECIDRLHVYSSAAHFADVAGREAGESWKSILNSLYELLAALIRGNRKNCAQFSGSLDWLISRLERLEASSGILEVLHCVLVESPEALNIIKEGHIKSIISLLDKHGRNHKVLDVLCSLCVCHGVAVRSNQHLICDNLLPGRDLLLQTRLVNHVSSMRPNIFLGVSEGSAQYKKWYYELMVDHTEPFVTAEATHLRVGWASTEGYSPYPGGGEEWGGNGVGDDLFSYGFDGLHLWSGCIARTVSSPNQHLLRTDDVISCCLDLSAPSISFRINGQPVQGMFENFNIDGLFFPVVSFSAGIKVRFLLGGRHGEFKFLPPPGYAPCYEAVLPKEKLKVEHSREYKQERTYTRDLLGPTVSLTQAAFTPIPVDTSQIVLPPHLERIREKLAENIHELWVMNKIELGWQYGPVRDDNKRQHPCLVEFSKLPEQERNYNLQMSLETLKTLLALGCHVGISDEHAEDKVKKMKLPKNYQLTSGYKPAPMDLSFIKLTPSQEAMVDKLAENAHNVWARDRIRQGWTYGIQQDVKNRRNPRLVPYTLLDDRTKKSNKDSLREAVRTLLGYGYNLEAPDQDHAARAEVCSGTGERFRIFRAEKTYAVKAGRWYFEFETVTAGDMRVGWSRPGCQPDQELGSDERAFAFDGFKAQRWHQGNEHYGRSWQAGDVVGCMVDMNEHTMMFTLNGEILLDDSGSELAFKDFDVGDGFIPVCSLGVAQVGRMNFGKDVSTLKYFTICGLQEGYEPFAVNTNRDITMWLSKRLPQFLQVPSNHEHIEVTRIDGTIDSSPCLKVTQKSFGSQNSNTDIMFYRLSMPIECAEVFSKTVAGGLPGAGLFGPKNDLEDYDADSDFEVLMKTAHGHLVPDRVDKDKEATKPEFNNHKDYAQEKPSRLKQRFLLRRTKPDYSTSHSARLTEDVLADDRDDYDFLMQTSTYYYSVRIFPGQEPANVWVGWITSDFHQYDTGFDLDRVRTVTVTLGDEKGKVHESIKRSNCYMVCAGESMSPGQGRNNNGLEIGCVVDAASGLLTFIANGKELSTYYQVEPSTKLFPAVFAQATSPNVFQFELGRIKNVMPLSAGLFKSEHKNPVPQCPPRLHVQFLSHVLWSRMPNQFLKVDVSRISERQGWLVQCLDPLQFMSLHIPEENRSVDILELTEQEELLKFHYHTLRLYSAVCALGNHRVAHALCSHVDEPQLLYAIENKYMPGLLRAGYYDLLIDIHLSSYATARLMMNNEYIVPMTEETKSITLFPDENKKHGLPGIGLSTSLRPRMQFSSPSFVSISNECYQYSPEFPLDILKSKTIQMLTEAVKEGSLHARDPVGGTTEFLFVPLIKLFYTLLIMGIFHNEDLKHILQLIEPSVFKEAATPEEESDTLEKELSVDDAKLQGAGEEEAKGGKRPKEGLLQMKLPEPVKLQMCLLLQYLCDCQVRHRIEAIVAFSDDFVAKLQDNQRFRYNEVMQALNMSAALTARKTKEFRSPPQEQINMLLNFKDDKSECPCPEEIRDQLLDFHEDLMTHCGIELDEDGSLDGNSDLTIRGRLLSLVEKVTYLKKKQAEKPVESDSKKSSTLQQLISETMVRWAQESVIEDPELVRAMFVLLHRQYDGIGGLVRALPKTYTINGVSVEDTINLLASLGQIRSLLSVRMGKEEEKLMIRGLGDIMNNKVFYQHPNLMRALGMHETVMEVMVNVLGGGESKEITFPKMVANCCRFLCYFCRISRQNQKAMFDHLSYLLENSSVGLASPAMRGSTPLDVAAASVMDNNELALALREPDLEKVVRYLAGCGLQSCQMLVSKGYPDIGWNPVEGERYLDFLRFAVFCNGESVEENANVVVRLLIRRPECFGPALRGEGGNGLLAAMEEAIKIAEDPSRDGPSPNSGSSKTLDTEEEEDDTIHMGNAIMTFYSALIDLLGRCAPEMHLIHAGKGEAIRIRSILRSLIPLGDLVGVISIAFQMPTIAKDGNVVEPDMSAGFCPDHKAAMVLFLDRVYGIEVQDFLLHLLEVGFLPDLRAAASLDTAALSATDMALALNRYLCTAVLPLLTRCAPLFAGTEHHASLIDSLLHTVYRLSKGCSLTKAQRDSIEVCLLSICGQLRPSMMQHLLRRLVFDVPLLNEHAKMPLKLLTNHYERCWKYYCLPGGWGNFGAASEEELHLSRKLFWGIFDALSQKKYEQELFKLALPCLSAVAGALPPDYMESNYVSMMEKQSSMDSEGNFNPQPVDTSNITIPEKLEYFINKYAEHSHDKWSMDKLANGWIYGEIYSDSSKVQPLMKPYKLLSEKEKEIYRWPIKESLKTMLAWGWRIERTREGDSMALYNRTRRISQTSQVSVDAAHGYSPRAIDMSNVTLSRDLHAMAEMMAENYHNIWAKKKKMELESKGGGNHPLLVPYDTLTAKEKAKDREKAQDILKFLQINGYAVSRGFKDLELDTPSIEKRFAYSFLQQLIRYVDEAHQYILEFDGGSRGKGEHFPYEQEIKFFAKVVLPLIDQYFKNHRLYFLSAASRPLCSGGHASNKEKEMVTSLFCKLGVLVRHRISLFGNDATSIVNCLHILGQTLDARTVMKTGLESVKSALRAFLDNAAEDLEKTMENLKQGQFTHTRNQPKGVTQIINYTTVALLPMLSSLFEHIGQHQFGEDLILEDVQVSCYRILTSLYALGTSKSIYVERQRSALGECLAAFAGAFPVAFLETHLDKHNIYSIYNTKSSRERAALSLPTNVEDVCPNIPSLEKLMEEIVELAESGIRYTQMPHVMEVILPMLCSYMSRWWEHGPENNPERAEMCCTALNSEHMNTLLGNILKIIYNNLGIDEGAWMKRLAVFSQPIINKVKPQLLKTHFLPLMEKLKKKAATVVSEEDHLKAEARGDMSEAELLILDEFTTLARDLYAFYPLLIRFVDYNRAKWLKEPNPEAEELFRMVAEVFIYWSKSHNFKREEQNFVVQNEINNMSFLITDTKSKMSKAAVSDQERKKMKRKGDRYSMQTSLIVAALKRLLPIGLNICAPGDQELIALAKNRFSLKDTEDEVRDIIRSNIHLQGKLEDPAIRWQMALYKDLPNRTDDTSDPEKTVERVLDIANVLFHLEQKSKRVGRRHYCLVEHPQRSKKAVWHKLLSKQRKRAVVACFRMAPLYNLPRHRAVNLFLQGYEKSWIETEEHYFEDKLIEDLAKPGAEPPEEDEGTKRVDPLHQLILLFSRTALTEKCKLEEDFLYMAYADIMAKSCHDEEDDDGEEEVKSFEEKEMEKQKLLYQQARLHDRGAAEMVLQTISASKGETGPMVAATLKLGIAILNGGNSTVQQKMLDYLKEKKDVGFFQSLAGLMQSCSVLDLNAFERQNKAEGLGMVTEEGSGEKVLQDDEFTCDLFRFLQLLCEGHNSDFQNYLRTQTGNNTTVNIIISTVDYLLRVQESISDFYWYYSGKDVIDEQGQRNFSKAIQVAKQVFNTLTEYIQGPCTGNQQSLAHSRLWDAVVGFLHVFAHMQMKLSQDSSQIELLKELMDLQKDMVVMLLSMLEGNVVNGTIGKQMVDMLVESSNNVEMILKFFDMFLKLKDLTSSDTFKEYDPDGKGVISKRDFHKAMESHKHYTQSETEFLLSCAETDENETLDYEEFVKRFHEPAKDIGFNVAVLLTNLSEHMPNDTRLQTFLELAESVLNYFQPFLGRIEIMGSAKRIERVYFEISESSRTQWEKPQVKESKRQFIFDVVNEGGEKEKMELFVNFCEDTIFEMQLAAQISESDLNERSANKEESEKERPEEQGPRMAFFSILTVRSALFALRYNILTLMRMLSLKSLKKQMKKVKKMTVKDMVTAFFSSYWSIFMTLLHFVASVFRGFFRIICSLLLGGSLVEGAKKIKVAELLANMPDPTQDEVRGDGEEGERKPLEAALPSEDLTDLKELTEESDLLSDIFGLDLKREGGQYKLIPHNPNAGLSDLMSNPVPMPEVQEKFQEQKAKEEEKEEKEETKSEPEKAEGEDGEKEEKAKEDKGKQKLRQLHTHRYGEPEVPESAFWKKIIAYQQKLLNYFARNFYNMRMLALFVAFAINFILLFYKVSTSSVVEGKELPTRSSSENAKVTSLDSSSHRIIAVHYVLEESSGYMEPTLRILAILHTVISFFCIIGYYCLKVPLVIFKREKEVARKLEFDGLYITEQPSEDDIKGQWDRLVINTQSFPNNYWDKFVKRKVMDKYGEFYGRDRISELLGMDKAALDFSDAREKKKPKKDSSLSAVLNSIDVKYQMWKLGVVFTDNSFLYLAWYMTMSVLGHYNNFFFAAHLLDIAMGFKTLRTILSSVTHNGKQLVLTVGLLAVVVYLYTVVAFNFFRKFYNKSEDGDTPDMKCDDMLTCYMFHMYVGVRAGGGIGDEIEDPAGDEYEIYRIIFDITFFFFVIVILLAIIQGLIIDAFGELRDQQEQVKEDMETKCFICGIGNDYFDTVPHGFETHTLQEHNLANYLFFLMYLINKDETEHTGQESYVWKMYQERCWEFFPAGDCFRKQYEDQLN

COc1ccc2c(c1)CN(CCCCC1(O)CC1)CCS2
Activity ([1]; filed as activator): Active | Activity (Ryanodine receptor 2 [2]): inactive | EC50 [3]: > 1000 µM | Papp at 24 h [4]: 3.6 ×10⁻⁶ cm/s | Activity [5]: Active

COc1ccc2c(c1)CN(CCCCNCCCCC1(O)CC1)CCS2
Activity [1]: inactive | EC50 (Ryanodine receptor 2 [2]): 8.17 µM | Papp at 24 h [4]: 0.8 ×10⁻⁶ cm/s | Activity [5]: Active

COc1ccc2c(c1)CN(C)CCS2
Activity [6]: inactive | Activity (Ryanodine receptor 2 [7]): Active | Activity (Ryanodine receptor 2 [2]; filed as modulator): Active | Activity [8]: inactive | Papp at 24 h [4]: 1.2 ×10⁻⁶ cm/s | Activity [9]: inactive

COc1ccc(SCCCNCCCCC2(O)CC2)cc1
Activity ([1]; filed as activator): Active | Papp at 24 h [4]: 6.9 ×10⁻⁶ cm/s | Activity [5]: Active

O=C1CN(/N=C/c2ccc(-c3ccc([N+](=O)[O-])cc3)o2)C(=O)N1
Activity (Ryanodine receptor 2 [10]): Active

COc1ccc(OCCCNCCCCC2(O)CC2)cc1
Activity [1]: inactive | Papp at 24 h [4]: 4 ×10⁻⁶ cm/s | Activity [5]: Active

COc1ccc(OCCCN(CCCCC2(O)CC2)CCCCC2(O)CC2)cc1
Activity ([1]; filed as activator): Active | Activity [11]: inactive | EC50 (Ryanodine receptor 2 [2]): > 23 µM | Activity [12]: 150% | EC50 [3]: 1.5 µM | Papp at 24 h [4]: 4 ×10⁻⁶ cm/s | Activity [5]: Active | Activity [13]: inactive | Activity [14]: 150%

COc1ccc2c(c1)CN(CCCCN(CCCCC1(O)CC1)CCCCC1(O)CC1)CCS2
Activity (Ryanodine receptor 2 [10]): Active | EC50 (Ryanodine receptor 2 [2]): 2.7 µM | Papp at 24 h [4]: 0.6 ×10⁻⁶ cm/s

COc1ccc(SCCCN(CCCCC2(O)CC2)CCCCC2(O)CC2)cc1
Activity ([1]; filed as activator): Active | Papp at 24 h [4]: 3.6 ×10⁻⁶ cm/s | Activity [5]: Active

COc1ccc2c(c1)CN(Cc1ccc(C(=O)O)cc1)CCS2 [SURLORIAN]
Activity ([1]; filed as activator): Active | Activity (Ryanodine receptor 2 [2]; filed as modulator): Active | EC50 [3]: 34.3 µM | Activity ([8]; filed as activator): Dose-Dependent Effect | Papp at 24 h [4]: 6.8 ×10⁻⁶ cm/s | Activity [5]: Active

COc1ccc2c(c1)CN(C(=O)C(=O)O)CCS2 [ALADORIAN]
Activity [6]: inactive | Activity (Ryanodine receptor 2 [10]): Active | Activity (Ryanodine receptor 2 [2]; filed as modulator): Active | Activity [8]: inactive | Papp at 24 h [4]: 1 ×10⁻⁶ cm/s | Activity [9]: inactive
